Experiment [1] concerns the target T1, OX2R (Mus musculus, UniProt P58308).
T1 construct: expressed in transfected cells; host or cells: CHO-K1
T1 sequence (P58308 1-460): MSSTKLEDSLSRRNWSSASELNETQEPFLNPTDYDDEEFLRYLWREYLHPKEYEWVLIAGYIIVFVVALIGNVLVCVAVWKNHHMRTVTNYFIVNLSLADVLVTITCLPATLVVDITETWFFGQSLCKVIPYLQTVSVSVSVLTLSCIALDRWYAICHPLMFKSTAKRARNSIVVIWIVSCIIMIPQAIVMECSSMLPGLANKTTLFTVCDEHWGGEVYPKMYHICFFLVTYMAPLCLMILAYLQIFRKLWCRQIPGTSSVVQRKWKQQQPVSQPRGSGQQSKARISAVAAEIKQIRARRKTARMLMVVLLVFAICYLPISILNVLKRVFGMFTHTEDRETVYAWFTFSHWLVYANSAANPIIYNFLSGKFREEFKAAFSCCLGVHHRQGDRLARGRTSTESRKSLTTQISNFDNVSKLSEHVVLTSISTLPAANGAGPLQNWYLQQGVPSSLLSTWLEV
As to the kind of experiment: Radio-ligand displacement binding, CHO-K1 membranes, mouse OX2R. The following applies: for fold OX2R selectivity (Ki): OX1R Ki / OX2R Ki; for Ki: read-out: OX2R affinity (Ki). As for the experimental part: (§1) MK-1064 was evaluated for its ability to inhibit orexin-peptide-A-induced calcium mobilization in CHO cell lines separately expressing OX1R and OX2R from mice, rats, rabbits, dogs, rhesus monkeys and humans.
(§2) Binding and functional blockade of OX1R and OX2R with MK-1064 relative to other 2-SORAs and the DORA, MK-6096, were assessed using membranes from Chinese hamster ovary (CHO)-K1 cells (American Type Tissue Collection, Manassas, VA) transfected to express human, mouse, rat, rabbit, dog, or rhesus monkey OX1R or OX2R receptors, as described previously. The kinetics of binding to human OX2R was assessed by radioligand displacement on CHO-K1 cells expressing the receptor. […] The ON rate analysis was performed by presoaking GF/B filters in 0.3% polyethyleneimine (Sigma) using a Skatron 12-well cell harvester and cold buffer at the indicated time points after addition. For OFF rate determination, binding reactions were allowed to proceed to equilibrium and terminated with 1000x [Kd] of unlabeled antagonist and filtered as above at pre-determined time points. Ultima Gold^TM (PerkinElmer 6013327) scintillation cocktail was added to each filter disc and counted on a PerkinElmer TriCarb 2910 scintillation counter. Data were analyzed using GraphPad® Prism v 6.04 (San Diego, CA, USA). The KON rate was determined according to the equation, KON = (KOBS − KOFF)/[ligand].

Experiment [2] has as its target T2, OX2R (Macaca mulatta, UniProt F7CZM2).
T2 sequence (F7CZM2 1-444): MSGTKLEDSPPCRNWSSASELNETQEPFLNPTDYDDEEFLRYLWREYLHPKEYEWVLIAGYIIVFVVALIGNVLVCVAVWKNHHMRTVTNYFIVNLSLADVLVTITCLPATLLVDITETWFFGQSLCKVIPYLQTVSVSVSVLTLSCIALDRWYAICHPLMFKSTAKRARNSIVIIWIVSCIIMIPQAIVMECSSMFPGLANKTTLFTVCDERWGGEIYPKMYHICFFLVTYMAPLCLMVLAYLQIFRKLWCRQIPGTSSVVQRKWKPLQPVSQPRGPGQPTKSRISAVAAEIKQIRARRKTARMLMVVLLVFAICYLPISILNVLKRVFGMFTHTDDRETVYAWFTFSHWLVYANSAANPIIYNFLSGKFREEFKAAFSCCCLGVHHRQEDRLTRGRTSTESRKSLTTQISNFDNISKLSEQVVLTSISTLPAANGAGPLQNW
As to the kind of experiment: Inhibition of orexin-peptide-A-induced calcium mobilization in CHO cells, rhesus OX2R. Format: cell-based, rhesus monkey. The conditions noted are these: for fold OX2R selectivity (Kb): OX1R Kb / OX2R Kb. The method, then: as §1, §2

Experiment [3] addresses T3, OX2R (Canis lupus familiaris, UniProt Q9TUP7).
T3 construct: expressed in transfected cells; host or cells: CHO-K1
T3 sequence (Q9TUP7 1-444): T2 sequence (F7CZM2 1-444) with S19P, I70V, L113V, S195T, F197L, V272A, P281Q, D337E, I417V
As to the kind of experiment: Radio-ligand displacement binding, CHO-K1 membranes, dog OX2R. The following applies: for fold OX2R selectivity (Ki): OX1R Ki / OX2R Ki; for Ki: read-out: OX2R affinity (Ki). The method, then: as §1, §2

The target in experiment [4] is T4, OX2R (Homo sapiens, UniProt O43614).
T4 sequence (O43614 1-444): T2 sequence (F7CZM2 1-444) with L113V, S195T, M196V, I286M, V308I, T334A, D337E
As to the kind of experiment: hOX2R binding kinetics (3H-labelled ligand, ON and OFF rate). Also on record: expressed in transfected cells; host or cells: CHO-K1. The following applies: for Kd / hOX2R binding kinetics T1/2OFF / hOX2R binding kinetics T1/2ON / hOX2R binding kinetics KOFF: room temperature, pH 7.4; for hOX2R binding kinetics KON: KON = (KOBS − KOFF)/[ligand]. The method, then: as §2

Data on five compounds can be found in paper PMC4891657, “Orexin 2 Receptor Antagonism is Sufficient to Promote NREM and REM Sleep from Mouse to Man” (Scientific Reports, 2016).

Changes are numbered by the printed parent chain.

In general, Ki refers to the dissociation constant of the complex between target and ligand, obtained from inhibition or displacement. In general, Kd refers to the free concentration of one partner at which half of the binding sites on the other are occupied at equilibrium, for simple one-to-one binding. Read a high Kd as weaker binding.

Consider `COc1ccc(CNC(=O)c2cc(-c3cc(Cl)cc(Cl)c3)cnc2-c2cccnc2)cc1OC` [2-SORA-18], for which, in experiment [1], the “fold OX2R selectivity (Ki)” value is “[653] fold” and the Ki was found to be 0.15 nM. Also, in experiment [2], the Kb is 23 nM and the “fold OX2R selectivity (Kb)” value was “[6] fold”. Moreover, in experiment [3], the “fold OX2R selectivity (Ki)” value was “[782] fold” and the Ki stood at 0.11 nM.
For the compound `COc1ccc(CNC(=O)c2cc(-c3cncc(C)c3)ncc2-c2nccs2)nc1OC` [MK-3697], the Ki in experiment [1] worked out at 1.47 nM. Also, in experiment [4], the Kd turned out to be 1.16 nM, the “hOX2R binding kinetics T1/2OFF” value stood at 54.4 min and the “hOX2R binding kinetics T1/2ON” value is reported as 24.3 min. Further, the Kb in experiment [2] amounted to 20 nM. The Ki in experiment [3] was found to be 1.1 nM.
As for `Cc1ccc(-c2ncccn2)c(C(=O)N2C[C@H](COc3ccc(F)cn3)CC[C@H]2C)c1` [MK-6096], in experiment [1], the “fold OX2R selectivity (Ki)” value is “[5.2] fold” and the Ki is 0.56 nM. For the same compound, in experiment [4], the “hOX2R binding kinetics KON” value stood at 9.19e+06 min⁻¹, binding was characterised by a dissociation constant (Kd) of 0.34 nM, the “hOX2R binding kinetics KOFF” value was found to be 0.0188 mol⁻¹ min⁻¹ and the “hOX2R binding kinetics T1/2OFF” value was found to be 118.3 min. Further, the “hOX2R binding kinetics T1/2ON” value in experiment [4] is given as 62.9 min. Moreover, in experiment [2], the Kb was 14 nM and the “fold OX2R selectivity (Kb)” value was “[1.5] fold”. In experiment [3], the “fold OX2R selectivity (Ki)” value was “[7.5] fold” and the inhibitory constant (Ki) stood at 0.36 nM.
For the compound `COc1ccc(CNC(=O)c2cc(-c3cncc(Cl)c3)cnc2-c2ccccn2)nc1OC` [MK-1064, 5″-chloro-N-[(5,6-dimethoxypyridin-2-yl)methyl]-2,2′:5′, 3″-terpyridine-3′-carbo xamide], in experiment [1], the “fold OX2R selectivity (Ki)” value was “[1136] fold” and the Ki worked out at 1.02 nM. Further, in experiment [4], the “hOX2R binding kinetics KON” value was found to be 1.19e+07 min⁻¹, binding was put at a Kd of 0.51 nM, the “hOX2R binding kinetics KOFF” value came out at 0.00697 mol⁻¹ min⁻¹ and the “hOX2R binding kinetics T1/2OFF” value is 110 min. Further, the “hOX2R binding kinetics T1/2ON” value in experiment [4] is reported as 21.1 min. Besides, in experiment [2], the Kb turned out to be 9 nM and the “fold OX2R selectivity (Kb)” value is “[375] fold”. Further, in experiment [3], the “fold OX2R selectivity (Ki)” value is “[1667] fold” and the inhibition constant Ki was determined as 0.78 nM.
In the case of `COc1ccc(CNC(=O)c2cc(-c3cncc(C)c3)ncc2-c2ccccc2)nc1OC` [2-SORA-7], in experiment [1], the “fold OX2R selectivity (Ki)” value was “[2040] fold” and the Ki was 0.83 nM. Moreover, in experiment [2], the Kb amounted to 18 nM and the “fold OX2R selectivity (Kb)” value is “[203] fold”. Also, in experiment [3], the “fold OX2R selectivity (Ki)” value was “[2857] fold” and the Ki was found to be 0.63 nM.
